Measured values reported in patent US20060122432A1, “Aryl piperidine derivatives and use thereof to reduce elevated levels of ldl-cholesterol” (priority 2002, published 2006).
pEC50: −log10 of the molar value. Structures can show the parent of a compound that is named as a salt.

Tests used:
LDL-r promoter = LDL-r promoter luciferase reporter assay in HepG2 cells; format: cell-based; settings: Homo sapiens; HepG2 cells stably transfected with LDL-r promoter-luciferase construct, 24 hours incubation, 2% lipoprotein-deficient serum; read-out: EC50 induction of luciferase activity
Procedure: HepG2 cells, stably transfected with a construct comprising the LDL-r promoter and the luciferase reporter gene, were seeded at 50.000 cells/well in 96 well plates. After 1 day, cells were incubated with compounds for 24 hours in RPMI medium containing 2% of lipoprotein-deficient serum. Compounds were tested from […]. Cell lysates were prepared and the luciferase activity was measured by the luciferase assay system (Promega). Induction of luciferase activity was calculated taking untreated cells as control. The ED50 of each compounds was determined compared to the ED50 of an internal standard.

| melting point [°C] | pEC50 (LDL-r promoter) | SMILES |
| --- | --- | --- |
| 188 | – | Cc1nc(-c2ccc(C#N)cc2)sc1C(=O)NCCCCN1CCC(c2ccc3c(c2OCCO)CCCC3)CC1 (as salt: hydrochloride) [Example 7, 2-(4-Cyano-phenyl)-4-methyl-thiazole-5-carboxylic acid (4-{4-[1-(2-hydroxy-ethoxy)-5,6,7,8-tetrahydro-naphthalen-2-yl]-piperidin-1-yl}-butyl)-amide, hydrochloride] |
| 157 to 159 | – | O=C(NCCCCN1CCC(c2ccc3c(c2OCCO)CCCC3)CC1)c1sc(-c2ccc(C(F)(F)F)cc2)nc1CO [Example 3, 4-Hydroxymethyl-2-(4-trifluoromethyl-phenyl)-thiazole-5-carboxylic acid (4-{4-[1-(2-hydroxy-ethoxy)-5,6,7,8-tetrahydro-naphthalen-2-yl]-piperidin-1-yl}-butyl)-amide] |
| – | 7.89 | Cc1nc(-c2ccc(Cl)cc2Cl)sc1C(=O)NCCCCN1CCC(c2ccc3c(c2OCCO)CCCC3)CC1 [Example 8, 2-(2,4-dichloro-phenyl)-4-methyl-thiazole-5-carboxylic acid (4-{4-[1-(2-hydroxy-ethoxy)-5,6,7,8-tetrahydro-naphthalen-2-yl]-piperidin-1-yl}-butyl)-amide] |
| 216 | 8.30 | CS(=O)(=O)Nc1ccc(-c2ccc(C(=O)NCCCCN3CCC(c4ccc5c(c4OCCO)CCCC5)CC3)cc2)cc1 [Example 12, 4′-Methanesulfonylamino-biphenyl-4-carboxylic acid (4-{4-[1-(2-hydroxy-ethoxy)-5,6,7,8-tetrahydro-naphthalen-2-yl]-piperidin-1-yl}-butyl)-amide] |
